Measured values from US20260265055A1, “Sulfine-Based Compounds for Generating Hydrogen Persulfide” (Brown University, priority 2023, published 2026).

What was measured:
[1] = Measurement of H2S2 formation from JK-1 with TTS (SSP4); settings: TTS 200 μM + JK-1 400 μM, 30 min incubation, pH 7.4
Description: Measurement of H2S2 formation from JK-1 with TTS: JK-1 (1.1 mg) was added to a 1 dram vial and 4.484 mL of 50 mM PBS (pH 6.0) was then added to obtain a 1 mM stock solution with no headspace in the vial. The solution was vortexed to mix and then incubated in the dark at rt for 20 min. Based on the H2S-release profile reported under the same conditions (see Kang, J. et al., J. Am. Chem. Soc. 2016, 138, 6336), 400 μM of H2S (40% of 1 mM) should be released. The pH of the solution was then adjusted to 7.4 by adding 16 μL 2N NaOH. The same volume of 50 mM PBS (pH 6.0) buffer was added to an empty 1 dram vial and 16 μL of 2N NaOH was added to adjust the pH of the buffer similarly for the controls. After incubation, 500 μL of the pH-adjusted PBS was aliquoted to nine 1.5 mL Eppendorf tubes while the same volume of JK-1 solution was aliquoted into six 1.5 mL Eppendorf tubes. […] 200 μL of each tube was then added to separate wells on a 96-well black flat clear-bottomed plate before being measured on a Molecular Devices SpectraMax iD3 Multi-Mode Microplate Reader (emission 535 nm; excitation 485 nm; integration time […], low PMT sensitivity, attenuation 1, read height 3.00 mm).
JK-1 in buffer was mixed with TTS to generate H2S2. After a 30 min incubation, the formation of H2S2 was measured by SSP4.

GAPDH = molecular target: T1, GAPDH (Oryctolagus cuniculus, UniProt P46406); test: GAPDH protein S-persulfidation (SSP4 fluorescence, LC-MS/MS); type: biochemical, rabbit
T1 construct: GAPDH (from rabbit muscle, #G2267, Sigma-Aldrich); purchased Sigma-Aldrich G2267; host or cells: rabbit muscle (tissue-purified)
Description: One of the primary functions of H2S2 is to induce protein S-persulfidation. Existing methods treat proteins with Na2S2 directly to obtain the persulfidated proteins. The present disclosure contemplates the use of TTS and H2S to persulfidate proteins as a comparison with Na2S2. GAPDH was used as the protein model and its persulfidation was evaluated by SSP4 using a protocol described in Shieh, M. et al., Shining a light on SSP4: a comprehensive analysis and biological applications for the detection of sulfane sulfurs. Redox Biol. 2022, 56, 102433 and Ni, X. et al., A sweet H2S/H2O2 dual release system and specific protein S-persulfidation mediated by thioglucose/glucose oxidase. J. Am. Chem. Soc. 2021, 143, 13325-13332. Reduced GAPDH (100 μM) was individually treated with 10 eq. of TTS+Na2S or Na2S2, as well as control reagents (TTS or Na2S only). The protein samples were then purified using Zeba Spin Desalting Columns (7K MWCO), diluted (to 10 μM), and treated with SSP4 (5 μM). Fluorescence signals were recorded to reflect persulfidation levels. […] To provide further evidence of persulfidation in the GAPDH system, TTS+Na2S-treated GAPDH was alkylated with HPE-IAM to stabilize the protein persulfides.
216 μL of PBS (50 mM, pH 7.4) was added to 3.9 mg of GAPDH (from rabbit muscle, #G2267, Sigma-Aldrich) to obtain a concentration of 500 μM (MW: 36 kDa). DTT (10 mM in DMSO, 11.35 μL) was added for a final equal concentration with the GAPDH. The solution was incubated in the dark at room temperature for 30 min. Zeba 7K MWCO spin columns were prepared and used according to manufacturer's instructions with 3 PBS washes. Excess reductant was removed by column purification with the Zeba 7K MWCO columns. The resulting reduced protein concentration was determined by the absorbance at 280 nm (εmM=30.4 mM-1 cm-1) using the Nanodrop One Microvolume UV-Vis Spectrophotometer (ThermoFisher Scientific). For controls, reduced GAPDH was treated with NEM (1:5 equiv.) and incubated at rt in the dark for 30 min before excess NEM was removed by the Zeba 7K MWCO columns. Next, the reduced protein was diluted to a final concentration of 100 μM in a final volume of 100 μL and treated with TTS (10 μL of 10 mM in DMSO for a final concentration of 1 mM), Na2S (10 μL of 10 mM in MilliQ H2O for a final concentration of 1 mM), both TTS and Na2S, or Na2S2 (10 μL of 10 mM in MilliQ H2O for a final concentration of 1 mM). For example, if the reduced protein (361 μM) was only to be treated with TTS, 62.3 μL of PBS (50 mM, pH 7.4) would first be added to an Eppendorf tube, followed by 27.7 μL of protein, and followed by 10 μL of TTS. TTS+Na2S and Na2S2 samples were also prepared at the concentrations above without any protein, where PBS (50 mM, pH 7.4) was used in place of the proteins (volume-wise). Samples were incubated at room temperature for 30 min in the dark before being purified by Zeba 7K MWCO columns (three times to ensure proper removal of excess treatment molecules) and quantified by absorbance. […] All samples were then incubated with SSP4 (5 μL of 100 μM in DMSO for a final concentration of 5 μM) in individual wells of a black clear flat bottom 96-well plate. The final volume was 100 μL. For example, if the persulfidated protein (99.5 μM) was to be examined, 84.95 μL of PBS (50 mM, pH 7.4) would first be added to a well, followed by 10.05 μL of protein, and then followed by 5 μL of SSP4. Incubation occurred at room temperature in the dark for 30 min before being measured on the SpectraMax iD3 microplate reader (ex: 485 nm; em: 525 nm).

T1 sequence (P46406 whole entry): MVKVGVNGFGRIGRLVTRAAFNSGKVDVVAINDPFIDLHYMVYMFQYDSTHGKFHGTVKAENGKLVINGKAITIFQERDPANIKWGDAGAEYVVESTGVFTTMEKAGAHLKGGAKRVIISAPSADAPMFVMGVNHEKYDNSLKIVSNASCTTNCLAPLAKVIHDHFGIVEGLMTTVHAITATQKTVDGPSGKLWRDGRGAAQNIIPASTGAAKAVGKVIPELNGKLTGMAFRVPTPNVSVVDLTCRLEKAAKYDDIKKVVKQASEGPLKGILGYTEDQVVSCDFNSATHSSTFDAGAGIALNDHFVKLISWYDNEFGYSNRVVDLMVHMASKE

## COC(=O)c1ccc(=S=O)sc1 [TTS, 2H-thiopyran-2-thione sulfine]
[1]
  SSP4 fluorescence (H2S2 formation): strong fluorescence
GAPDH; TTS 1 mM + Na2S 1 mM vs Na2S2 1 mM, one-way ANOVA
  GAPDH persulfidation signal compared with Na2S2: significantly higher signals than Na2S2
GAPDH; TTS+Na2S-treated GAPDH
  GAPDH persulfidation by LC-MS/MS after HPE-IAM alkylation and trypsin digestion: successful protein persulfidation
GAPDH; reduced GAPDH 100 μM treated with TTS 1 mM + Na2S 1 mM
  SSP4 fluorescence of persulfidated GAPDH: strong fluorescence
GAPDH; reduced GAPDH 100 μM treated with the reagent only (1 mM)
  SSP4 fluorescence of persulfidated GAPDH: did not give any notable fluorescence
